In PMC7287882, “Dual miRNases for Triple Incision of miRNA Target: Design Concept and Catalytic Performance” (Molecules, 2020):

Assays:
miR-155 = experiment: Ribonuclease activity assay with DC or ON and RNase H, miR-155; type: biochemical
Experimental: It is known that DNA-like antisense oligonucleotides after binding to target RNAs form a substrate for intracellular endonuclease RNases H. RNA hydrolysis in RNA-DNA heteroduplex by RNase H1 occurs at a distance of 6–10 nucleotides from the 5′-end of RNA (approximately one turn of the helix). Our design of the Dual conjugates here was carried out in such a way to ensure that their heteroduplexes with the matching miRNA sequences could serve as potential substrates for RNase H. To achieve that, we ensured that the length of the oligonucleotide recognition motifs A and B within the DC was 8–10 nt, which was expected to be sufficient for interaction and cleavage by RNase H (see Figure 1 and Table 1). As indicated above, a few adenine aromatic basis within each recognition motifs A and B were replaced with 2-aminoadenines to enhance the hybridization ability of the DC with miRNA. […] In order to verify this, as well as to evaluate the ability of RNase H to contribute to the miRNA cleavage catalyzed by DC, we studied the kinetics of the target miRNA cleavage performed (1) by the DC alone; (2) by RNase H, when the target miRNA was hybridized with the nonconjugated Dual oligonucleotide (ON); and (3) by both DC and RNase H present in the same reaction mixture. The study was performed against miR-17, miR-155 and miR-21 using a 20-fold excess of DCs or respective oligonucleotides over the matching miRNA (see Table 1 for sequences).
Figure 6 Cleavage kinetics of 5′-[^32P]-labeled miRNAs by DCs and/or RNase H. (a,d,g). […]
The reaction mixture (10 µL) containing 20 mM Tris-HCl, pH 7.8, 40 mM KCl, 8 mM MgCl2, 1 mM DTT, 0.02 mg/mL BSA, 800 cpm (Cherenkov’s counting) of [^32P]-miRNA, 1 µM unlabeled miRNA, 20 µM either DC or Dual oligonucleotide was incubated at 37 °C for 20 min then RNase H (5 or 100 U/mL) was added and the mixture was further incubated for 48 h. Aliquots were taken at 0, 1, 6, 24 and 48 h then the reaction was quenched, RNA cleavage products were collected and analyzed as described above.

[1] = type: in vitro ADME, bovine; conditions: serum
Experimental: Stability of miRNA-21-DC and miRNA-155-DC and corresponding ONs was carried out in reaction mixtures (90 µL) containing DCs or ONs at a concentration of 0.1 mg/mL in Dulbecco’s Modified Eagle Medium (DMEM) with 10% FBS at 37 °C for 24 h. Aliquots (10 μL) were taken after 0, 0.5, 1, 2, 4, 8, and 24 h of incubation. The reaction was stopped by adding 10 μL of 8 M urea, and the reaction mixture was immediately frozen in liquid nitrogen. DCs and ONs cleavage products were analyzed in 12% PAAG/8M urea. To identified products, gels were stained with the Stains-All dye and photographed using a gel documentation system.
Figure S12. Stability of Dual conju gat es (DCs) and corresponding Du al oligonucleotides (ONs)
targeted to miR-155 and miR-21 in cell medium DMEM supplemented with 10% FBS . Im a g e s
of the 12% PAAG/8M urea, stained with Stains-Alland kinetics of degradation of DCs and ONs .
Conjugates and oligonucleotides at a concentration of 0. 1 mg/mL were incubated in DMEM
supplemented with 10% FBS at 37 °C for 24 h.
(1 picture or pasted object on this page, not shown here)

miR-18a = experiment: Ribonuclease activity assay at different concentrations of MgCl2; type: biochemical; conditions: 50 mM Tris-HCl pH 7.0, 100 mM KCl, 1 mM DTT, 0.02 mg/mL BSA, 37 °C, 48 h; for Cleavage: miRNA 1 µM, DC 20 µM, mean ± s.e.
Experimental: In order to understand the effect of Mg^2+ ions on the efficiency and specificity of miRNA cleavage by DCs, miR-18a was incubated with the matching DC in the buffer containing 50 mM Tris-HCl, pH 7.0, 100 mM KCl, 1 mM DTT, 0.02 mg/mL BSA, but with different Mg^2+ concentration varied from 0 to 15 mM.
Reaction with different concentration of MgCl2 was performed in reaction mixtures (8 µL) containing 320 cpm (Cherenkov’s counting) of [^32P]-miR-18a, 1 μM unlabeled miRNA, 20 µM of miR-18a-DC in buffers contained 100 mM KCl, 50 mM Tris-HCl pH 7.0, 1mM DTT, 0.02 mg/mL BSA and MgCl2 at concentration 0, 2, 4, 8 or 15 mM at 37 °C for 48 h. RNA cleavage products were collected and analyzed as described above.

| Substance | maximum extent of cleavage with DC and RNase H relative to DC alone (miR-155) | total extent of cleavage in the complex with DC relative to the miRNA/ON complex (miR-155; RNase H 5 u/mL) [fold] | maximum extent of cleavage with DC and RNase H (miR-155; miRNA 1 µM, DC 20 µM, buffer (2), 37 °C, plateau) [%] | half-life time (τ1/2) in 10% FBS [1] [h] | Cleavage (miR-18a; Mg2+ 0 mM) [%] | Cleavage (miR-18a; Mg2+ 2 mM) [%] | Cleavage (miR-18a; Mg2+ 4 mM) [%] | Cleavage (miR-18a; Mg2+ 8 mM) [%] | Cleavage (miR-18a; Mg2+ 15 mM) [%] | ribonuclease activity of DC (cleavage), unaffected by addition of Mg2+ (miR-18a; Mg2+ varied from 0 to 15 mM) |
| --- | --- | --- | --- | --- | --- | --- | --- | --- | --- | --- |
| ACCCCTAT–linker 1–[GRLRL]2–linker 2–TTAGCATTAA [miRNA-155-DC, Dual oligonucleotide-peptide conjugate targeted to miR-155: catalytic peptide [LRLRG]2 between two 2-aminoadenine-containing oligodeoxyribonucleotides] | about 2 fold | ~1.5 | 75 | 9.01 ± 0.5 |  |  |  |  |  |  |
| TATCTGC–linker 1–[GRLRL]2–linker 2–ATGCACCTTA [miRNA-18a-DC, Dual oligonucleotide-peptide conjugate targeted to miR-18a: catalytic peptide [LRLRG]2 between two 2-aminoadenine-containing oligodeoxyribonucleotides] |  |  |  |  | 26.4±4.0 | 28.8±3.9 | 24.3±2.7 | 23.1±3.1 | 27.2±4.3 | approximately 26% |
| TCAACATC–linker 1–[GRLRL]2–linker 2–GATAAGCTA [miRNA-21-DC, Dual oligonucleotide-peptide conjugate targeted to miR-21: catalytic peptide [LRLRG]2 between two 2-aminoadenine-containing oligodeoxyribonucleotides] |  |  |  | 8 ± 0.1 |  |  |  |  |  |  |
